Reference: a melting point compilation (Tetko et al.; mined from patent text by program, amines drawn as free bases though some values may be those of a salt)

melting point [°C] | SMILES
142 | Cn1cc(-c2ccccc2)c(=O)c(-c2ccc(Cl)cc2)c1
223 to 225 | Cc1ncnc2c(NC(=O)c3c(Cl)cccc3Cl)cccc12
113 to 117 | OCCSc1ccc2cc(SCCO)ccc2c1
189 | COc1ccc(S(=O)(=O)N(CCC(N)=O)c2ccc(Cl)cc2Cc2c(F)cccc2F)cc1OC
138 | CC(OC(=O)c1ccc(C(=O)O)cc1)c1ccc2c(c1)C(C)(C)CCC2(C)C (single isomer, unassigned; (-))
159 to 160 | COc1ccc(C)cc1NC(=O)Nc1ccc(N2CCN(C(=O)Nc3c(C)cccc3C(=O)O)CC2)cc1
101 to 103 | Cc1c(-n2ccnc2)n(CCCCCCCC(=O)O)c2ccccc12
120 to 122 | C=CC1(C(=O)c2ccc(Cl)cc2)C=CC=CC1Cl (stereo unspecified)
205 to 206 | CC(=O)NC1Cc2cccc3cccc(c23)C1O (stereo unspecified)
301 | COC(=O)c1ccc(C(=O)Nc2nnc(-c3cc(Cl)cc(Cl)c3O)s2)nc1
81 to 84 | CNC(Cc1ccccc1NC(=O)C(C)(C)C)c1ccsc1 (stereo unspecified)
150 | CN(C)Cc1c(-c2ccccc2)oc2c(CO)cccc2c1=O
203 to 204 | Cc1ccc2c(c1)C(NC(=O)CCCCl)c1ccccc1CS2(=O)=O (stereo unspecified)
168 to 170 | COCc1c2c(c(COC)n1-c1ccccc1)C(C)(C(N)=O)CC2(C)C (stereo unspecified)
190 to 192 | O=C1CC2CS(=O)c3ccccc3C2=NN1c1ccc(Cl)cc1 (stereo unspecified)
125 to 127 | CCN1C(=O)C(C)(C)C(=O)N(C)c2cc(CN(CCn3ccc4ccsc4c3=O)Cc3cccnc3C)ccc21
177 to 180 | CC(=O)Nc1ccc(C=CC(=O)N2CCc3c([nH]c4ccccc34)C2c2ccccc2)cc1 (stereo unspecified)
214 to 218 | O=C(O)C1(c2ccc(C#Cc3ccccc3)cc2)CC1
89 to 90 | CCOC(=O)Cc1ccc(-c2nc(COc3ccc(COc4nn(-c5ccccc5)cc4/C=C\c4csc(C(C)C)n4)cc3OC)c(C)o2)cc1

melting point [°C] | SMILES
185 to 187 | O=C(O)Cc1c(-c2ccccc2)nn(-c2cccnc2)c1-c1ccccc1
190 to 192 | O=C(O)C1=Cc2cc(Cl)cc(C#Cc3ccccc3)c2OC1C(F)(F)F (stereo unspecified)
157 to 159 | COC(=O)c1ccc(-c2n[nH]c3ccccc23)o1
295 | O=c1ccc2ccc(Br)cc2[nH]1
94 to 96 | COc1ccc(Nc2ccccc2C(C)=C(Cl)Cl)cc1OC
231 to 233 | CC(C)(C)C(=O)CN1C(=O)C(NC(=O)Nc2cccc(C(=O)O)c2)CN(C(=O)C(C)(C)C)c2ccccc21 (stereo unspecified)
215 to 217 | Cc1ccc(S(=O)(=O)N2C(C)CN3C(=O)c4ccccc4C32c2ccc(F)cc2)cc1 (stereo unspecified)
228 to 229 | COc1cc2c(c(Cl)c1Cl)SC(c1ccccc1)C2=O (stereo unspecified)
106 to 108 | CC(C)C[C@H](NC(=O)CCCc1ccccc1)C(=O)N[C@@H](Cc1ccccc1)C(=O)CSCc1ccco1
171 to 172 | CC(=O)N1CCN(Cc2cnc(-c3cc4c(C)ccc(N(C)S(=O)(=O)c5cccs5)c4[nH]3)s2)CC1
142 | CCC(C)Cc1ccc(OC(=O)c2ccc(O)cc2Cl)cc1 (single isomer, unassigned; (+))
74 to 75 | CCOC(=O)CC(=O)N=C(SC)N(C)N=Cc1ccccc1
130 to 134 | Cc1cc(C)cc(-n2ncc(-c3ccc(S(C)(=O)=O)cc3)c(-c3ccc(F)cc3)c2=O)c1
107 to 109 | COc1ccc(NN=C(Sc2c(C)cccc2C)C(C)=O)cc1
210 | CC(C)Cc1nc2cc(C(c3cccc(Cl)c3)n3ccnc3)ccc2[nH]c1=O (stereo unspecified)
92 to 93 | C=CCC1COC(CC)(CC(=O)OC)c2[nH]c3c(CC)cccc3c21 (stereo unspecified)
91 | CC(C)(C)OC(=O)N1CC[C@H](CNCc2ccccc2)[C@@H](O)C1
138 to 139 | Cc1cc(C(=Cc2nnnn2C)c2ccc(F)c(C)c2)ccc1F
105 to 107 | COc1ccc(S(=O)(=O)Nc2cccc3c2Nc2ccc(C#N)cc2CN3)cc1

melting point [°C] | SMILES
212 to 213 | Cc1cc(I)ccc1NC1=CC2=NCN(C)C2=CC1(F)C(=O)NOCC(O)CO (stereo unspecified)
176 to 177 | CC(C)Cn1c(=O)n(C)c(=O)c2c(C#CCCCO)n(Cc3cccc4ccccc34)cc21
176 | C#Cc1cc2c(Nc3ccc4[nH]ccc4c3)ncnc2cc1OC
224 | COc1ccc(N2CCN(c3ccc(-n4ccn(CC(F)(F)F)c4=O)cc3)CC2)cc1
189 | Cc1c(Cl)cccc1S(=O)(=O)Nc1nc(CC(=O)Oc2ccccc2)cs1
219 | Cc1nc2c3c(c(C(=O)N(C)C)cc2[nH]1)CC[C@@H](c1ccccc1C)O3
190 to 193 | COC(=O)C1=C(C)NC(=O)N(C(=O)OC)C1c1cccc(N)c1 (stereo unspecified)
128 | O=S1(=O)c2cccc3cccc(c23)N1CCN1CC=C(Cc2c[nH]c3ccc(F)cc23)CC1
120 | CC(C)(CCN1CCc2ccc(S(=O)(=O)Nc3cccc(Cl)c3)cc2C1)C(=O)O
117 to 119 | COc1cc(C)c2c(Oc3cccc(C(F)(F)F)c3)c(OC)cc(NC(C)CCCN3C(=O)c4ccccc4C3=O)c2n1 (stereo unspecified)
116 to 118 | CC(C)Cc1nc2ccc(Br)cc2c(-c2ccccc2)c1CO
199 to 200 | Nc1nc2ccccc2c2c1nc(CCCOc1ccccc1)n2CCCNC(=O)N1CCOCC1
247 to 249 | Cc1ccc(N2C(=O)C(O)=C(C(=O)c3ccc(-c4ccccn4)cc3)C2c2ccc(OC(F)(F)F)cc2)nn1 (stereo unspecified)
208 to 209 | COC(=O)c1cc(N2CCCC2)c(Oc2cc(C)cc(C)c2)c(S(N)(=O)=O)c1
294 to 298 | CN1CCN(c2ccc(Nc3ncc4c(n3)S/C(=C/c3ccc(C(N)=O)cc3)C(=O)N4)cc2)CC1
179 to 180 | CC(C)(C)c1csc(-c2cc3cc(O)ccc3o2)n1
> 250 | Cc1ccc(-c2[nH]c(-c3ccncc3)nc2C(=O)Nc2nccs2)cc1
148 to 151 | Cc1cccc(NC(=O)NC2CN(C(=O)C3CCCCC3)c3ccccc3N(CC(=O)c3ccccc3C)C2=O)c1 (stereo unspecified)

Continued, compound first:

SMILES | melting point [°C]
CN(CCO)S(=O)(=O)c1cc([N+](=O)[O-])c(Cl)s1 | 62
O=C(O)C1=Cc2ccccc2OC1C(F)(F)F (stereo unspecified) | 152 to 153
C=Cc1ccc2c3ccc(C=C)cc3n(CC(CC)CCCC)c2c1 (stereo unspecified) | 59 to 60
CCCCCCCCCCCCCCCCCC(O)c1ccc(Cl)c(C(=O)O)c1 (stereo unspecified) | 106 to 107
Cc1cc([N+](=O)[O-])nc(C)c1C(N)=O | 179 to 180
C[C@]12CC[C@H]3[C@@H](CCC4=CC(=O)CC[C@@]43COC(=O)C34CC5CC(CC(C5)C3)C4)[C@@H]1CCC2=O | 161 to 163
CCCCNC(=NC#N)Nc1cccnc1 | 96 to 97
CC(C#N)=CCN1C(=O)c2ccccc2S1(=O)=O | 107 to 108
O[C@@H]1C=CC=C(Cl)[C@@H]1O (relative stereo) | 95 to 96
CCN(Cc1ccccc1)c1nc(=O)c2cc(C(F)(F)F)cc([N+](=O)[O-])c2s1 | 94 to 97
C#Cc1ccc(CO[C@@H]2COc3nc([N+](=O)[O-])cn3C2)cn1 | 168 to 170
CCCCCCc1cnc(-c2ccc(C#N)cc2)nc1 | 53.5 to 54.5
COc1cc2c(cc1OC)-c1n[nH]c(Nc3cc(Cl)cc(Cl)c3)c1C2 | > 270
O=C(O)C(CC1CCCC1)c1ccc(Cl)c(Cl)c1 (stereo unspecified) | 74.5 to 76.9
CC1(C)C=C(CC(=O)O)C(C)(C)CC1 | 50 to 54
Fc1cc(-c2ccc3nnn(Cc4ccc5ncccc5c4)c3n2)ccc1OCC1CC1 | 160 to 162
CC1CCN(c2nccc(Oc3ccc(NC(=O)c4cc(F)cc(N5CCCCC5)c4)c4ccccc34)n2)CC1 | 145 to 146
CN1CC(CCCl)Sc2ncccc2C1=S (stereo unspecified) | 160 to 162
O=C(O)c1cnc(Cl)cc1C(F)(F)F | 115 to 117
CNC(=O)c1cccc2c1C1(COc3cc4c(cc31)OCCO4)C(=O)N2C (stereo unspecified) | 120 to 122

SMILES | melting point [°C]
O=C(O)CCN1CCCCC1=O | 105 to 110
CC1CN(c2ccc(Cl)cc2)N=C1NCC(F)(F)F (stereo unspecified) | 84 to 86
Cc1[nH]c(=O)n(-c2cc(C(=O)OC(C)C)c(Cl)cc2F)c(=O)c1C | 155 to 157
O=C(CC(C(=O)O)C1CCCCC1)Nc1cccc(/C=C/c2nc(C3CCC3)cs2)c1 (stereo unspecified) | 205 to 207
COc1cc2c(cc1O)C1Cc3c(Cl)cc(OC)c(OC(C)=O)c3CN1CC2 (single isomer, unassigned; (-)) | 172 to 173
Nc1noc(C(F)(F)F)c1-c1ccccc1 | 91.5 to 92
CC(C)(C)OC(=O)NC1CCCCCC=CC2CC2(C(=O)NS(=O)(=O)C2CC2)NC(=O)C2CC(OC(=O)c3ccc(Cl)c(F)c3)CN2C1=O (stereo unspecified) | 147 to 149
C#CCCCCn1ncc2c(N)c(C(=O)OCC=C)c(C)nc21 | 69 to 70
Nc1ccc2c(c1)Sc1ccc(N)cc1S2 | 185 to 186
CCCCCCc1cc2c(s1)NC(=O)CN=C2c1ccc(OC)cc1 | 123 to 125
Cn1ncnc1COc1nc2c(cc1-c1ccoc1)nnn2-c1ccccc1F | 145 to 146
Cc1ccc(S(N)(=O)=O)cn1 | 151 to 155
CCCn1nc2c(N)nc3c(c2c1CCCc1cc(C(C)C)no1)CCCC3 | 147 to 149
O=C(O)c1ccc2c(c1)C=CC(=CCl)CO2 | > 260
CCOc1ccc2[nH]c(=O)n(C3CCCC3)c2c1 | 75
CC(C)(C)OC(=O)NC(Cc1ccccc1)C(=O)OC(Cc1c[nH]cn1)C(=O)O (stereo unspecified) | 130 to 131
O=C(Nc1ccc(-n2nc(C(F)(F)F)cc2C(F)(F)F)nc1)c1cc(F)c(F)cc1Cl | 113 to 116
CN(C(=O)c1ccc2nonc2c1)[C@H]1CC[C@H](n2ncnn2)CC1 | 172 to 175
N#CCCN1CCC(c2ccccc2)(c2ccccc2)CC1 | 95 to 96
Cc1ccc2scc(CCNc3ncnc4c3ncn4C3OC(CO)C(O)C3O)c2c1 (stereo unspecified) | 158 to 160
